Assay results: patent US8604061B2, “2-aminooxazolines as TAAR1 ligands” (Hoffmann-La Roche Inc., priority 2007, dated 2013)

These compounds were tested against TAAR1 (Mus musculus, UniProt Q923Y8) (assay: TAAR1 radioligand binding, membranes of stably transfected HEK293 cells (mouse)). Conditions: not given.
Protocol: For the construction of expression plasmids the coding sequences of human, rat and mouse TAAR 1 were amplified from genomic DNA essentially as described by Lindemann et al.. The Expand High Fidelity PCR System (Roche Diagnostics) was used with 1.5 mM Mg^2+ and purified PCR products were cloned into pCR2.1-TOPO cloning vector (Invitrogen) following the instructions of the manufacturer. PCR products were subcloned into the pIRESneo2 vector (BD Clontech, Palo Alto, Calif.), and expression vectors were sequence verified before introduction in cell lines.
HEK293 cells (ATCC #CRL-1573) were cultured essentially as described Lindemann et al. (2005). For the generation of stably transfected cell lines HEK293 cells were transfected with the pIRESneo2 expression plasmids containing the TAAR coding sequences (described above) with Lipofectamine 2000 (Invitrogen) according to the instructions of the manufacturer, and 24 hrs post transfection the culture medium was supplemented with 1 mg/ml G418 (Sigma, Buchs, Switzerland). After a culture period of about 10 d clones were isolated, expanded and tested for responsiveness to trace amines (all compounds purchased from Sigma) with the cAMP Biotrak Enzyme immunoassay (EIA) System (Amersham) following the non-acetylation EIA procedure provided by the manufacturer.
Cells at confluence were rinsed with ice-cold phosphate buffered saline without Ca^2+ and Mg^2+ containing 10 mM EDTA and pelleted by centrifugation at 1000 rpm for 5 min at 4° C. The pellet was then washed twice with ice-cold phosphate buffered saline and cell pellet was frozen immediately by immersion in liquid nitrogen and stored until use at −80° C. Cell pellet was then suspended in 20 ml HEPES-NaOH (20 mM), pH 7.4 containing 10 mM EDTA, and homogenized with a Polytron (PT 3000, Kinematica) at 10,000 rpm for 10 s. The homogenate was centrifuged at 48,000×g for 30 min at 4° C. and the pellet resuspended in 20 ml HEPES-NaOH (20 mM), pH 7.4 containing 0.1 mM EDTA (buffer A), and homogenized with a Polytron at 10,000 rpm for 10 s. The homogenate was then centrifuged at 48,000×g for 30 min at 4° C. and the pellet resuspended in 20 ml buffer A, and homogenized with a Polytron at 10,000 rpm for 10 s. Protein concentration was determined by the method of Pierce (Rockford, Ill.). The homogenate was then centrifuged at 48,000×g for 10 min at 4° C., resuspended in HEPES-NaOH (20 mM), pH 7.0 including MgCl2 (10 mM) and […] homogenized with a Polytron at 10,000 rpm for 10 s.
Binding assay was performed at 4° C. in a final volume of 1 ml, and with an incubation time of 30 min. […] Non-specific binding was defined as the amount of [^3H]-rac-2-(1,2,3,4-tetrahydro-1-naphthyl)-2-imidazoline bound in the presence of the appropriate unlabelled ligand (10 μM). Competing ligands were tested in a wide range of concentrations (10 pM-30 μM). […] Each experiment was performed in duplicate. All incubations were terminated by rapid filtration through UniFilter-96 plates (Packard Instrument Company) and glass filter GF/C, pre-soaked for at least 2 h in polyethylenimine 0.3%, and using a Filtermate 96 Cell Harvester (Packard Instrument Company). The tubes and filters were then washed 3 times with 1 ml aliquots of cold buffer B. Filters were not dried and soaked in Ultima gold (45 μl/well, Packard Instrument Company) and bound radioactivity was counted by a TopCount Microplate Scintillation Counter (Packard Instrument Company).
For `NC1=NC(c2cc(F)ccc2F)CO1` (racemic) [Example 16, (RS)-4-(2,5-Difluoro-phenyl)-4,5-dihydro-oxazol-2-ylamine], the Ki was 0.0048 µM.
With `NC1=NC(c2cc(Cl)ccc2C(F)(F)F)CO1` (racemic) [Example 225, (RS)-4-(5-Chloro-2-trifluoromethyl-phenyl)-4,5-dihydro-oxazol-2-ylamine] the Ki was 0.0062 µM.
With `NC1=NC(c2ccc(Cl)c(Cl)c2)CO1` (racemic) [Example 14, (RS)-4-(3,4-Dichlorophenyl)-4,5-dihydro-oxazol-2-ylamine] the Ki was 0.0005 µM.
For `NC1=NC(c2ccc(Br)cc2C(F)(F)F)CO1` (racemic) [Example 302, (RS)-4-(4-Bromo-2-trifluoromethyl-phenyl)-4,5-dihydro-oxazol-2-ylamine], the Ki was 0.0017 µM.
Work on `NC1=NC(CCc2ccccc2)CO1` (racemic) [D, (RS)-4-Phenethyl-4,5-dihydro-oxazol-2-ylamine, reference compound] yielded a Ki of 0.001 µM.
`CC1(c2cc(Cl)ccc2Cl)COC(N)=N1` (racemic) [Example 299, (RS)-4-(2,5-Dichloro-phenyl)-4-methyl-4,5-dihydro-oxazol-2-ylamine] showed a Ki of 0.0042 µM.
`NC1=NC(c2ccc(Br)c(Cl)c2)CO1` (racemic) [Example 326, (RS)-4-(4-Bromo-3-chloro-phenyl)-4,5-dihydro-oxazol-2-ylamine] gave a Ki of 0.001 µM.
`Cc1c(F)cccc1C1COC(N)=N1` (racemic) [Example 365, (RS)-4-(3-Fluoro-2-methyl-phenyl)-4,5-dihydro-oxazol-2-ylamine] gave a Ki of 0.0029 µM.
`NC1=NC(c2ccc(-c3ccc(Cl)cc3)cc2)CO1` (racemic) [Example 31, (RS)-4-(4′-Chloro-biphenyl-4-yl)-4,5-dihydro-oxazol-2-ylamine] was tested, and the Ki was 0.0022 µM.
With `NC1=NC(c2ccc(Cl)cc2Cl)CO1` (racemic) [Example 235, (RS)-4-(2,4-Dichloro-phenyl)-4,5-dihydro-oxazol-2-ylamine] the Ki was 0.001 µM.
For `NC1=NC(c2ccc(Br)cc2)CO1` (racemic) [Example 20, (RS)-4-(4-Bromo-phenyl)-4,5-dihydro-oxazol-2-ylamine], the Ki was 0.0009 µM.
`NC1=NC(C2CCc3ccccc3C2)CO1` (racemic) [Example 84, (RS)-4-(1,2,3,4-Tetrahydro-naphthalen-2-yl)-4,5-dihydro-oxazol-2-ylamine] showed a Ki of 0.0017 µM.
`NC1=NC(c2ccc(Br)c(F)c2)CO1` (racemic) [Example 252, (RS)-4-(4-Bromo-3-fluoro-phenyl)-4,5-dihydro-oxazol-2-ylamine] gave a Ki of 0.0008 µM.

Same assay, conditions: mouse/rat; cell not marked 'rat'; radioligand [3H]-rac-2-(1,2,3,4-tetrahydro-1-naphthyl)-2-imidazoline, 4° C.; read-out: Ki (μM) mouse/rat
Work on `CC1(c2ccc(F)c(F)c2F)COC(N)=N1` (racemic) [Example 269, (RS)-4-Methyl-4-(2,3,4-trifluoro-phenyl)-4,5-dihydro-oxazol-2-ylamine] yielded a Ki of 0.0083 µM.
`CCC(C[C@H]1COC(N)=N1)c1ccccc1F` (stereo partly drawn) [Example 223, (S)-4-[2-(2-Fluoro-phenyl)-butyl]-4,5-dihydro-oxazol-2-ylamine] was tested, and the Ki was 0.0059 µM.
With `CC[C@]1(c2ccc(Cl)c(Cl)c2)COC(N)=N1` [Example 328, (S)-4-(3,4-Dichloro-phenyl)-4-ethyl-4,5-dihydro-oxazol-2-ylamine] the Ki was 0.0052 µM.
With `C[C@]1(c2ccc(C(F)(F)F)cc2F)COC(N)=N1` [Example 215, (S)-4-(2-Fluoro-4-trifluoromethyl-phenyl)-4-methyl-4,5-dihydro-oxazol-2-ylamine] the Ki was 0.0024 µM.
Work on `NC1=N[C@@H](CCc2ccc(OC(F)(F)F)c(F)c2)CO1` [Example 145, (S)-4-[2-(3-Fluoro-4-trifluoromethoxy-phenyl)-ethyl]-4,5-dihydro-oxazol-2-ylamine] yielded a Ki of 0.0026 µM.
Work on `NC1=N[C@@H](CCc2cc(C(F)(F)F)ccc2F)CO1` [Example 156, (S)-4-[2-(2-Fluoro-5-trifluoromethyl-phenyl)-ethyl]-4,5-dihydro-oxazol-2-ylamine] yielded a Ki of 0.0064 µM.
With `NC1=N[C@@H](c2ccccc2Br)CO1` [Example 265, (+)-(S)-4-(2-Bromo-phenyl)-4,5-dihydro-oxazol-2-ylamine] the Ki was 0.0009 µM.
In the case of `NC1=N[C@@H](CCc2cccc(Cl)c2)CO1` [Example 232, (S)-4-[2-(3-Chloro-phenyl)-ethyl]-4,5-dihydro-oxazol-2-ylamine], the Ki is reported as 0.0006 µM.
`NC1=N[C@@H](c2cc(Cl)ccc2C(F)(F)F)CO1` [Example 341, (+)-(S)-4-(5-Chloro-2-trifluoromethyl-phenyl)-4,5-dihydro-oxazol-2-ylamine] gave a Ki of 0.0046 µM.
`CCC(C[C@H]1COC(N)=N1)c1cccc(F)c1` (stereo partly drawn) [Example 340, (S)-4-[2-(3-Fluoro-phenyl)-butyl]-4,5-dihydro-oxazol-2-ylamine] showed a Ki of 0.002 µM.
With `CC(Cc1ccccc1)[C@H]1COC(N)=N1` (stereo partly drawn) [Example 154, (S)-4-(1-Methyl-2-phenyl-ethyl)-4,5-dihydro-oxazol-2-ylamine] the Ki was 0.0034 µM.
In the case of `NC1=N[C@@H](c2cc(Cl)cc(Cl)c2)CO1` [Example 201, (+)-(S)-4-(3,5-Dichloro-phenyl)-4,5-dihydro-oxazol-2-ylamine], the Ki is reported as 0.0002 µM.
`NC1=N[C@@H](Cc2cccc3ccccc23)CO1` [Example 48, (S)-4-Naphthalen-1-ylmethyl-4,5-dihydro-oxazol-2-ylamine] gave a Ki of 0.0002 µM.
For `NC1=N[C@@H](c2cc(F)cc(F)c2)CO1` [Example 176, (S)-4-(3,5-Difluoro-phenyl)-4,5-dihydro-oxazol-2-ylamine], the Ki was 0.002 µM.
With `NC1=N[C@@H](CCc2cccc(C(F)(F)F)n2)CO1` [Example 212, (S)-4-[2-(6-Trifluoromethyl-pyridin-2-yl)-ethyl]-4,5-dihydro-oxazol-2-ylamine] the Ki was 0.0068 µM.
`Cc1cc(F)ccc1[C@H]1COC(N)=N1` [Example 348, (+)-(S)-4-(4-Fluoro-2-methyl-phenyl)-4,5-dihydro-oxazol-2-ylamine] was tested, and the Ki was 0.0036 µM.
`NC1=N[C@@H](c2cccc(F)c2F)CO1` [Example 9, (S)-4-(2,3-Difluoro-phenyl)-4,5-dihydro-oxazol-2-ylamine] showed a Ki of 0.0034 µM.
For `CCC(C[C@H]1COC(N)=N1)c1ccc(Cl)c(Cl)c1` (stereo partly drawn) [Example 222, (S)-4-[2-(3,4-Dichloro-phenyl)-butyl]-4,5-dihydro-oxazol-2-ylamine], the Ki was 0.0048 µM.
With `NC1=N[C@@H](CCc2cc(F)cc(F)c2)CO1` [Example 113, (S)-4-[2-(3,5-Difluoro-phenyl)-ethyl]-4,5-dihydro-oxazol-2-ylamine] the Ki was 0.0016 µM.
`CC[C@H](C[C@H]1COC(N)=N1)c1ccccc1` [Example 293, (S)-4-((R)-2-Phenyl-butyl)-4,5-dihydro-oxazol-2-ylamine] showed a Ki of 0.0062 µM.
Compound `Cc1cc(CC[C@H]2COC(N)=N2)ccc1F` [Example 140, (S)-4-[2-(4-Fluoro-3-methyl-phenyl)-ethyl]-4,5-dihydro-oxazol-2-ylamine] has a Ki of 0.001 µM.
With `NC1=N[C@@H](c2ccccc2C(F)(F)F)CO1` [Example 122, (S)-4-(2-Trifluoromethyl-phenyl)-4,5-dihydro-oxazol-2-ylamine] the Ki was 0.0034 µM.
`CC1(c2cc(F)c(F)cc2F)COC(N)=N1` (racemic) [Example 251, (RS)-4-Methyl-4-(2,4,5-trifluoro-phenyl)-4,5-dihydro-oxazol-2-ylamine] gave a Ki of 0.0086 µM.
Work on `CCc1cc(Cl)ccc1[C@H]1COC(N)=N1` [Example 364, (+)-(S)-4-(4-Chloro-2-ethyl-phenyl)-4,5-dihydro-oxazol-2-ylamine] yielded a Ki of 0.002 µM.
`CC1(CCc2ccccc2)COC(N)=N1` (racemic) [Example 78, (RS)-4-Methyl-4-phenethyl-4,5-dihydro-oxazol-2-ylamine] was tested, and the Ki was 0.0064 µM.
Compound `NC1=N[C@@H](c2ccc(Cl)cc2Cl)CO1` [Example 296, (+)-(S)-4-(2,4-Dichloro-phenyl)-4,5-dihydro-oxazol-2-ylamine] has a Ki of 0.0004 µM.
Compound `NC1=N[C@@H](c2cccc(Cl)c2F)CO1` [Example 109, (S)-4-(3-Chloro-2-fluoro-phenyl)-4,5-dihydro-oxazol-2-ylamine] has a Ki of 0.0014 µM.
